Values of other authors in patent US20250248432A1, “MIXTURE COMPRISING D-ALLULOSE AND TASTE MODIFYING COMPOUNDS” (SYMRISE AG, priority 2019, published 2025).

Conditions: relative to sucrose

Compound: O=C(CO)C(O)C(O)C(O)CO [Allulose, D-allulose]
- sweetness intensity of sucrose: about 70%
